# Data from PMC11224111, “Optimizing the pharmacokinetics of an ^211At-labeled RGD peptide with an albumin-binding moiety via the administration of an albumin-binding inhibitor” (European Journal of Nuclear Medicine and Molecular Imaging, 2024).
# Assays:
# [1] = mouse, in vivo; cited from earlier work
# [2] = Radiation dose estimation (MIRDcalc, adult male) from mouse biodistribution; parameters: species or system human; settings: for Absorbed dose estimates, Bone marrow / Absorbed dose estimates, Brain / Absorbed dose estimates, Heart / Absorbed dose estimates, Kidney / Absorbed dose estimates, L. intestine / Absorbed dose estimates, Liver / Absorbed dose estimates, Lung / Absorbed dose estimates, Muscle / Absorbed dose estimates, Pancreas / Absorbed dose estimates, S. intestine / Absorbed dose estimates, Spleen / Absorbed dose estimates, Stomach / Absorbed dose estimates, Thyroid / Absorbed dose estimates, Tumor: adult male, MIRDcalc
# Source text: For estimation of the radiation dose absorbed, the blood, bone, and muscle mass of mice were assumed to be 8%, 5%, and 48% of body weight, respectively. The stomach was assumed to be distributed only in the wall, the heart, small intestine, and colon equally in the content and wall, and the colon was further assumed to be equally distributed in the left, right, and rectosigmoid. According to the International Commission on Radiological Protection, an equal distribution of radionuclide to trabecular and cortical bones was assumed. The non-decay-corrected activity from each source organ was converted into a percentage of the injected dose. The area under each organ’s activity curve from time 0 to infinity was calculated by extrapolation of biodistribution data. To correct for the different ratios of organ to total body weights in mouse and in human, we used the following organ correction factor (CR):
# CR=organmass/totalbodymasshuman/organmass/totalbodymassmouse
# Human organ weights and total body weights used data for adult males from previous reports. Tumor volume was converted from mouse-to-human total body weight ratio. According to the values, the radiation doses were calculated for an adult male patient using MIRDcalc v1.21 software (Society of Nuclear Medicine and Molecular Imaging). In the case of without administrating IPBA, calculation was performed using the data of a biodistribution study in our previous study.
# [3] = parameters: method as in PMID 37819452; settings: normal mice; cited from earlier work
# [4] = With IPBA, ratio of absorbed dose estimates
# [5] = Without IPBA, calculated from data of ref 16
# [6] = Without IPBA, ratio of absorbed dose estimates, calculated from data of ref 16
substance,measurement,setting,value
Ga-DOTA-K([^125I]IPBA)-c(RGDfK) [[^125I]2],"Radioactivity, Blood",[1],11.80 (0.75) % injected activity per gram
same,"Radioactivity, Bone",[1],1.50 (0.26) % injected activity per gram
same,"Radioactivity, Brain",[1],0.29 (0.03) % injected activity per gram
same,"Radioactivity, Heart",[1],3.81 (0.18) % injected activity per gram
same,"Radioactivity, Kidney",[1],3.70 (0.65) % injected activity per gram
same,"Radioactivity, L. intestine",[1],1.20 (0.25) % injected activity per gram
same,"Radioactivity, Liver",[1],1.96 (0.18) % injected activity per gram
same,"Radioactivity, Lung",[1],5.60 (0.52) % injected activity per gram
same,"Radioactivity, Muscle",[1],1.32 (0.16) % injected activity per gram
same,"Radioactivity, Neck",[1],0.09 (0.02) % injected activity
same,"Radioactivity, Pancreas",[1],2.05 (0.25) % injected activity per gram
same,"Radioactivity, S. intestine",[1],1.58 (0.31) % injected activity per gram
same,"Radioactivity, Spleen",[1],1.61 (0.12) % injected activity per gram
same,"Radioactivity, Stomach",[1],0.87 (0.11) % injected activity
Ga-DOTA-K([^211At]APBA)-c(RGDfK) [[^211At]1],Absorbed dose to tumor tissue,[2]; 1.85 MBq with IPBA,1.34 mGy
same,"Absorbed dose estimates, Bone marrow",[2]; With IPBA,0.042 mGy/MBq
same,"Absorbed dose estimates, Brain",[2]; With IPBA,0.017 mGy/MBq
same,"Absorbed dose estimates, Heart",[2]; With IPBA,0.080 mGy/MBq
same,"Absorbed dose estimates, Kidney",[2]; With IPBA,0.266 mGy/MBq
same,"Absorbed dose estimates, L. intestine",[2]; With IPBA,0.056 mGy/MBq
same,"Absorbed dose estimates, Liver",[2]; With IPBA,0.109 mGy/MBq
same,"Absorbed dose estimates, Lung",[2]; With IPBA,0.203 mGy/MBq
same,"Absorbed dose estimates, Muscle",[2]; With IPBA,0.300 mGy/MBq
same,"Absorbed dose estimates, Pancreas",[2]; With IPBA,0.087 mGy/MBq
same,"Absorbed dose estimates, S. intestine",[2]; With IPBA,0.052 mGy/MBq
same,"Absorbed dose estimates, Spleen",[2]; With IPBA,0.117 mGy/MBq
same,"Absorbed dose estimates, Stomach",[2]; With IPBA,0.051 mGy/MBq
same,"Absorbed dose estimates, Thyroid",[2]; With IPBA,0.032 mGy/MBq
same,"Absorbed dose estimates, Tumor",[2]; With IPBA,0.727 mGy/MBq
same,"Tumor/normal tissue ratio, Brain",[2]; [4],51.071
same,"Tumor/normal tissue ratio, Heart",[2]; [4],10.712
same,"Tumor/normal tissue ratio, Kidney",[2]; [4],3.226
same,"Tumor/normal tissue ratio, L. intestine",[2]; [4],15.349
same,"Tumor/normal tissue ratio, Liver",[2]; [4],7.872
same,"Tumor/normal tissue ratio, Lung",[2]; [4],4.227
same,"Tumor/normal tissue ratio, Muscle",[2]; [4],2.860
same,"Tumor/normal tissue ratio, Pancreas",[2]; [4],9.873
same,"Tumor/normal tissue ratio, S. intestine",[2]; [4],16.437
same,"Tumor/normal tissue ratio, Spleen",[2]; [4],7.333
same,"Tumor/normal tissue ratio, Stomach",[2]; [4],16.791
same,"Tumor/normal tissue ratio, Thyroid",[2]; [4],26.729
same,"Absorbed dose estimates, Bone marrow",[2]; [5],0.132 mGy/MBq
same,"Absorbed dose estimates, Brain",[2]; [5],0.218 mGy/MBq
same,"Absorbed dose estimates, Heart",[2]; [5],0.381 mGy/MBq
same,"Absorbed dose estimates, Kidney",[2]; [5],0.427 mGy/MBq
same,"Absorbed dose estimates, L. intestine",[2]; [5],0.193 mGy/MBq
same,"Absorbed dose estimates, Liver",[2]; [5],0.319 mGy/MBq
same,"Absorbed dose estimates, Lung",[2]; [5],0.976 mGy/MBq
same,"Absorbed dose estimates, Muscle",[2]; [5],0.557 mGy/MBq
same,"Absorbed dose estimates, Pancreas",[2]; [5],0.246 mGy/MBq
same,"Absorbed dose estimates, S. intestine",[2]; [5],0.190 mGy/MBq
same,"Absorbed dose estimates, Spleen",[2]; [5],0.354 mGy/MBq
same,"Absorbed dose estimates, Stomach",[2]; [5],0.176 mGy/MBq
same,"Absorbed dose estimates, Thyroid",[2]; [5],0.111 mGy/MBq
same,"Absorbed dose estimates, Tumor",[2]; [5],0.858 mGy/MBq
same,"Tumor/normal tissue ratio, Bone marrow",[2]; [6],6.500
same,"Tumor/normal tissue ratio, Brain",[2]; [6],3.936
same,"Tumor/normal tissue ratio, Heart",[2]; [6],2.252
same,"Tumor/normal tissue ratio, Kidney",[2]; [6],2.009
same,"Tumor/normal tissue ratio, L. intestine",[2]; [6],4.446
same,"Tumor/normal tissue ratio, Liver",[2]; [6],2.690
same,"Tumor/normal tissue ratio, Lung",[2]; [6],0.879
same,"Tumor/normal tissue ratio, Muscle",[2]; [6],1.540
same,"Tumor/normal tissue ratio, Pancreas",[2]; [6],3.488
same,"Tumor/normal tissue ratio, S. intestine",[2]; [6],4.516
same,"Tumor/normal tissue ratio, Spleen",[2]; [6],2.424
same,"Tumor/normal tissue ratio, Stomach",[2]; [6],4.875
same,"Tumor/normal tissue ratio, Thyroid",[2]; [6],7.730
same,Toxicity,[3],no serious hematotoxicity and weight loss
